EC50 data for 29 compounds are collected here from patent US9120770B2, “Substituted pyridine and pyrazine compounds as PDE4 inhibitors” (DART NEUROSCIENCE (CAYMAN) LTD., priority 2013, dated 2015).

Molecules are shown by their SMILES.

For the assay, the target named is PDE4D3 (Homo sapiens, UniProt Q08499).
Chain of PDE4D3 (Q08499 1-673 isoform Q08499-2): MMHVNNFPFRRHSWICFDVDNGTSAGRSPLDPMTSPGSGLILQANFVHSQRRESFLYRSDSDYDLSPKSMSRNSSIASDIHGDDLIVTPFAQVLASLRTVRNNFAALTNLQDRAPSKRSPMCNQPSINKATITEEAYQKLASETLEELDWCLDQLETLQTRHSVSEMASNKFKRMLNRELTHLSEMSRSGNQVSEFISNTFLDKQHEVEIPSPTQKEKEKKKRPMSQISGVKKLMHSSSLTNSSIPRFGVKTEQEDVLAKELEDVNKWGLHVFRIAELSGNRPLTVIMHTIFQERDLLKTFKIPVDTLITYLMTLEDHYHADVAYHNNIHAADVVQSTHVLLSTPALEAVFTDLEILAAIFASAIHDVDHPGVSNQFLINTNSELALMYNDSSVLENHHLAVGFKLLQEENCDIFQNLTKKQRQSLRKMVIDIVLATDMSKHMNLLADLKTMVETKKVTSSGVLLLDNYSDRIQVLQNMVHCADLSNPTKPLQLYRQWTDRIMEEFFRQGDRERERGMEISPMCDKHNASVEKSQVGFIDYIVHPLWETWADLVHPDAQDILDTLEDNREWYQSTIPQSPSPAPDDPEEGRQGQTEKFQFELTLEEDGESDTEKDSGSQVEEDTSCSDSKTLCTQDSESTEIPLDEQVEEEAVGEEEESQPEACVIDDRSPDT
For orientation: EC50 means the midpoint of the concentration-response curve. A lower EC50 goes with higher potency in that assay. `CCOc1ncc(Cn2cnc(C(F)(F)F)n2)cc1-c1cccc(OC(F)F)c1` [Example 163, 3-[3-(Difluoromethoxy)phenyl]-2-ethoxy-5-{[3-(trifluoromethyl)-1H-1,2,4-triazol-1-yl]methyl}pyridine]: the EC50 is less than 0.1 µM.
The same measure for `CCOc1ncc(Cn2ncnc2C(F)(F)F)cc1-c1cccc(OC(F)F)c1` [Example 164, 3-[3-(Difluoromethoxy)phenyl]-2-ethoxy-5-{[5-(trifluoromethyl)-1H-1,2,4-triazol-1-yl]methyl}pyridine]: 0.1 to 1 µM; for `CCOc1ncc(Cn2cnc(COC)n2)cc1-c1cccc(OC(F)F)c1` [Example 165, 3-[3-(Difluoromethoxy)phenyl]-2-ethoxy-5-{[3-(methoxymethyl)-1H-1,2,4-triazol-1-yl]methyl}pyridine]: less than 0.1 µM; for `CCOc1ncc(Cn2ncnc2COC)cc1-c1cccc(OC(F)F)c1` [Example 166, 3-[3-(Difluoromethoxy)phenyl]-2-ethoxy-5-{[5-(methoxymethyl)-1H-1,2,4-triazol-1-yl]methyl}pyridine]: 0.1 to 1 µM.
Turning to `COc1ncc(Cn2cc(Cl)cn2)cc1-c1cccc(OC(F)F)c1` [Example 167, 5-[(4-Chloro-1H-pyrazol-1-yl)methyl]-3-[3-(difluoromethoxy)phenyl]-2-methoxypyridine], the EC50 was in the range of 0.1 to 1 µM.
As for `CCOc1ncc(Cn2ccc(C(N)=O)n2)cc1-c1cccc(Cl)c1` [Example 168, 1-{[5-(3-Chlorophenyl)-6-ethoxypyridin-3-yl]methyl}-1H-pyrazole-3-carboxamide], the EC50 was less than 0.1 µM.
`CCOC(=O)c1cnn(Cc2cnc(OC)c(-c3cccc(Cl)c3)c2)c1` [Example 169, Ethyl 1-{[5-(3-chlorophenyl)-6-methoxypyridin-3-yl]methyl}-1H-pyrazole-4-carboxylate] gave an EC50 of 1 to 10 µM.
As for `COc1ncc(Cn2cc(C#N)cn2)cc1-c1cccc(Cl)c1` [Example 170, 1-{[5-(3-Chlorophenyl)-6-methoxypyridin-3-yl]methyl}-1H-pyrazole-4-carbonitrile], the EC50 was in the range of 0.1 to 1 µM.
With `COc1ncc(Cn2cncn2)cc1-c1ccncc1` [Example 171, 2-Methoxy-3-(pyridin-4-yl)-5-(1H-1,2,4-triazol-1-ylmethyl)pyridine], the EC50 fell in the range of 0.1 to 1 µM.
The same measure for `COc1ncc(Cn2cc(NC(C)=O)cn2)cc1-c1cccc(Cl)c1` [Example 172, N-(1-{[5-(3-Chlorophenyl)-6-methoxypyridin-3-yl]methyl}-1H-pyrazol-4-yl)acetamide]: 1 to 10 µM; for `COc1ncc(Cn2ccnc2)cc1-c1cccc(Cl)c1` [Example 173, 3-(3-Chlorophenyl)-5-(1H-imidazol-1-ylmethyl)-2-methoxypyridine]: less than 0.1 µM; for `Fc1cccc(-c2cc(Cn3cncn3)cnc2OC(F)F)c1` [Example 174, 2-(Difluoromethoxy)-3-(3-fluorophenyl)-5-(1H-1,2,4-triazol-1-ylmethyl)pyridine]: less than 0.1 µM.
The compound `COc1cccc(-c2cc(Cn3cncn3)cnc2OC(F)F)c1` [Example 175, 2-(Difluoromethoxy)-3-(3-methoxyphenyl)-5-(1H-1,2,4-triazol-1-ylmethyl)pyridine] returned an EC50 greater than 10 µM.
For the compound `FC(F)Oc1ncc(Cn2cncn2)cc1-c1cccc(OC(F)(F)F)c1` [Example 176, 2-(Difluoromethoxy)-5-(1H-1,2,4-triazol-1-ylmethyl)-3-[3-(trifluoromethoxy)phenyl]pyridine], the EC50 fell in the range of 0.1 to 1 µM.
The same measure for `COc1ncc(Cn2ccccc2=O)cc1-c1cccc(Cl)c1` [Example 177, 1-{[5-(3-Chlorophenyl)-6-methoxypyridin-3-yl]methyl}-1,2-dihydropyridin-2-one]: 1 to 10 µM; for `COc1ncc(Cn2cc(Cl)cn2)cc1-c1cccc(Cl)c1` [Example 178, 5-[(4-Chloro-1H-pyrazol-1-yl)methyl]-3-(3-chlorophenyl)-2-methoxypyridine]: 0.1 to 1 µM; for `COc1ncc(Cn2cc(C)cn2)cc1-c1cccc(Cl)c1` [Example 179, 3-(3-Chlorophenyl)-2-methoxy-5-[(4-methyl-1H-pyrazol-1-yl)methyl]pyridine]: 0.1 to 1 µM.
`COc1ncc(Cn2cc([N+](=O)[O-])cn2)cc1-c1cccc(Cl)c1` [Example 180, 3-(3-Chlorophenyl)-2-methoxy-5-[(4-nitro-1H-pyrazol-1-yl)methyl]pyridine] displayed an EC50 of 0.1 to 1 µM.
On to `COc1ncc(Cn2cc([N+](=O)[O-])cn2)nc1-c1cccc(Cl)c1` [Example 181, 3-(3-Chlorophenyl)-2-methoxy-5-[(4-nitro-1H-pyrazol-1-yl)methyl]pyrazine], for which the EC50 lay within 1 to 10 µM.
The compound `COc1ncc(Cn2cccn2)nc1-c1cccc(Cl)c1` [Example 182, 3-(3-Chlorophenyl)-2-methoxy-5-(1H-pyrazol-1-ylmethyl)pyrazine] had a concentration for a half-maximal effect (EC50) of 1 to 10 µM.
Compound `COc1ncc(Cn2ccnc2)nc1-c1cccc(Cl)c1` [Example 183, 3-(3-Chlorophenyl)-5-(1H-imidazol-1-ylmethyl)-2-methoxypyrazine] showed an EC50 of less than 0.1 µM.
`COc1ncc(Cn2cc(C)cn2)nc1-c1cccc(Cl)c1` [Example 184, 3-(3-Chlorophenyl)-2-methoxy-5-[(4-methyl-1H-pyrazol-1-yl)methyl]pyrazine] registered an EC50 of 1 to 10 µM.
Compound `CCOc1ncc(Cn2cnc(C)n2)nc1-c1cccc(OC(F)F)c1` [Example 185, 3-[3-(Difluoromethoxy)phenyl]-2-ethoxy-5-[(3-methyl-1H-1,2,4-triazol-1-yl)methyl]pyrazine] displayed an EC50 of less than 0.1 µM.
For the compound `CCOc1ncc(Cn2cnc(C3CC3)n2)nc1-c1cccc(OC(F)F)c1` [Example 186, 5-[(3-Cyclopropyl-1H-1,2,4-triazol-1-yl)methyl]-3-[3-(difluoromethoxy)phenyl]-2-ethoxypyrazine], the EC50 fell in the range of 1 to 10 µM.
Compound `CCOc1ncc(Cn2cnc(C(F)(F)F)n2)nc1-c1cccc(OC(F)F)c1` [Example 187, 3-[3-(Difluoromethoxy)phenyl]-2-ethoxy-5-{[3-(trifluoromethyl)-1H-1,2,4-triazol-1-yl]methyl}pyrazine] gave an EC50 of 1 to 10 µM.
Regarding `CCOc1ncc(Cn2ncnc2C(F)(F)F)nc1-c1cccc(OC(F)F)c1` [Example 188, 3-[3-(Difluoromethoxy)phenyl]-2-ethoxy-5-{[5-(trifluoromethyl)-1H-1,2,4-triazol-1-yl]methyl}pyrazine], the half-maximal effective concentration (EC50) lay in the range of 0.1 to 1 µM.
`CCOc1ncc(Cn2cnc(COC)n2)nc1-c1cccc(OC(F)F)c1` [Example 189, 3-[3-(Difluoromethoxy)phenyl]-2-ethoxy-5-{[3-(methoxymethyl)-1H-1,2,4-triazol-1-yl]methyl}pyrazine] registered an EC50 of 0.1 to 1 µM.
The same measure for `CCOc1ncc(Cn2ncnc2COC)nc1-c1cccc(OC(F)F)c1` [Example 190, 3-[3-(Difluoromethoxy)phenyl]-2-ethoxy-5-{[5-(methoxymethyl)-1H-1,2,4-triazol-1-yl]methyl}pyrazine]: 1 to 10 µM; for `CCOc1ncc(Cn2cnc(C(=O)OC)n2)nc1-c1cccc(OC(F)F)c1` [Example 191, Methyl 1-((6-(3-(difluoromethoxy)phenyl)-5-ethoxypyrazin-2-yl)methyl)-1H-1,2,4-triazole-3-carboxylate]: 0.1 to 1 µM.
